Assay results published in US12209087B2, “AKT1 modulators” (Alterome Therapeutics, Inc., priority 2022, dated 2025).

Each compound was assayed against T1, full length AKT E17K (Homo sapiens, UniProt P31749, E17K) (assay: NanoBRET Target Engagement (TE) Assay). Details: competitive displacement of tracer in cells, read-out: AKT1 E17K IC50.
T1 construct: host or cells: HEK-293 (ATCC CRL-1573)
Format: cell-based
Outline: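 Compound and tracer incubated 2 h before luminescence at donor 450 nm and acceptor 600 nm, with extracellular signal inhibited. EC50 by sigmoidal variable-slope regression.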

T1 sequence (P31749 whole entry E17K): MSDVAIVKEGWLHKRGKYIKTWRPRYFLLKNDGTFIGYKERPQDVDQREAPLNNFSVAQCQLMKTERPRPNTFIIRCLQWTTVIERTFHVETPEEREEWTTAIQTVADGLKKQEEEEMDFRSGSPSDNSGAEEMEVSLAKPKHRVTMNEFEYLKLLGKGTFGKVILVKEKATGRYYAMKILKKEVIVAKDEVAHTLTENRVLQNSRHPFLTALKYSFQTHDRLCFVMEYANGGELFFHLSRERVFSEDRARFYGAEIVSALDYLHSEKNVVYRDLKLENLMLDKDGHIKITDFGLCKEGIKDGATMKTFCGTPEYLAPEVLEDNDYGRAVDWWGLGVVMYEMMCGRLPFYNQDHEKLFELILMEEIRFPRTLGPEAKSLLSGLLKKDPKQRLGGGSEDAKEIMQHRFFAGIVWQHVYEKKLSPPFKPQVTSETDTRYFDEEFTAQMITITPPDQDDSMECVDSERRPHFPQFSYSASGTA

SMILES | IC50
Cc1cn(-c2ccc3nc(-c4cccnc4N)n(-c4ccc(CN5CCC(Nc6ccnc(C#N)n6)CC5)cc4)c3n2)nn1 [Example 593, 4-((1-(4-(2-(2-Aminopyridin-3-yl)-5-(4-methyl-1H-1,2,3-triazol-1-yl)-3H-imidazo[4,5-b]pyridin-3-yl)benzyl)piperidin-4-yl)amino)pyrimidine-2-carbonitrile] | < 15 nM
[2H]C1(Nc2ccnc(C#N)n2)CCN(Cc2ccc(-n3c(-c4cccnc4N)nc4cc(C)c(C)nc43)cc2)CC1 [Example 452, 4-((1-(4-(2-(2-Aminopyridin-3-yl)-5,6-dimethyl-3H-imidazo[4,5-b]pyridin-3-yl)benzyl)piperidin-4-yl-4-d)amino)pyrimidine-2-carbonitrile] | < 15 nM
N#Cc1ccnc(NC2CCN(Cc3ccc(-n4c(-c5cccnc5N)nc5ccc(N6CCCNC(=O)C6)nc54)cc3)CC2)n1 [Example 347, 2-((1-(4-(2-(2-Aminopyridin-3-yl)-5-(3-oxo-1,4-diazepan-1-yl)-3H-imidazo[4,5-b]pyridin-3-yl)benzyl)piperidin-4-yl)amino)pyrimidine-4-carbonitrile] | 60 to 600 nM
N#Cc1ccnc(NC2CCN(Cc3ccc(-n4c(-c5cccnc5N)nc5ccc(-c6cccc(F)c6)nc54)cc3)CC2)n1 [Example 358, 2-((1-(4-(2-(2-Aminopyridin-3-yl)-5-(3-fluorophenyl)-3H-imidazo[4,5-b]pyridin-3-yl)benzyl)piperidin-4-yl)amino)pyrimidine-4-carbonitrile] | 15 to 60 nM

The next lines start with the values.

IC50 | SMILES
< 15 nM | [2H]c1nn(C)nc1-c1ccc2nc(-c3cccnc3N)n(-c3ccc(CN4CCC(Nc5ccnc(C#N)n5)CC4)cc3)c2n1 [Example 616, 4-((1-(4-(2-(2-Aminopyridin-3-yl)-5-(2-methyl-2H-1,2,3-triazol-4-yl-5-d)-3H-imidazo[4,5-b]pyridin-3-yl)benzyl)piperidin-4-yl)amino)pyrimidine-2-carbonitrile]
< 15 nM | [2H]C([2H])([2H])c1nn(C)nc1-c1ccc2nc(-c3cccnc3N)n(-c3ccc(CN4CCC(Nc5ccnc(C#N)n5)CC4)cc3)c2n1 [Example 612, 4-((1-(4-(2-(2-Aminopyridin-3-yl)-5-(2-methyl-5-(methyl-d3)-2H-1,2,3-triazol-4-yl)-3H-imidazo[4,5-b]pyridin-3-yl)benzyl)piperidin-4-yl)amino)pyrimidine-2-carbonitrile]
< 15 nM | COc1cnccc1-c1ccc2nc(-c3cccnc3N)n(-c3ccc(CN4CCC(Nc5ccnc(C#N)n5)CC4)cc3)c2n1 [Example 515, 4-((1-(4-(2-(2-Aminopyridin-3-yl)-5-(3-methoxypyridin-4-yl)-3H-imidazo[4,5-b]pyridin-3-yl)benzyl)piperidin-4-yl)amino)pyrimidine-2-carbonitrile]
< 15 nM | [2H]C([2H])([2H])n1ncc(-c2ccc3nc(-c4cccnc4N)n(-c4ccc(CN5CCC(Nc6ccnc(C#N)n6)CC5)cc4)c3n2)n1 [Example 608, 4-((1-(4-(2-(2-Aminopyridin-3-yl)-5-(2-(methyl-d3)-2H-1,2,3-triazol-4-yl)-3H-imidazo[4,5-b]pyridin-3-yl)benzyl)piperidin-4-yl)amino)pyrimidine-2-carbonitrile]
< 15 nM | CCn1cc(-c2ccc3nc(-c4cccnc4N)n(-c4ccc(CN5CCC(Nc6ccnc(C#N)n6)CC5)cc4)c3n2)nn1 [Example 625, 4-((1-(4-(2-(2-Aminopyridin-3-yl)-5-(1-ethyl-1H-1,2,3-triazol-4-yl)-3H-imidazo[4,5-b]pyridin-3-yl)benzyl)piperidin-4-yl)amino)pyrimidine-2-carbonitrile]
< 15 nM | Cc1cccc(-c2ccc3nc(-c4cccnc4N)n(-c4ccc(CN5CCC(Nc6ccnc(C#N)n6)CC5)cc4)c3n2)n1 [Example 571, 4-((1-(4-(2-(2-Aminopyridin-3-yl)-5-(6-methylpyridin-2-yl)-3H-imidazo[4,5-b]pyridin-3-yl)benzyl)piperidin-4-yl)amino)pyrimidine-2-carbonitrile]
< 15 nM | [2H]C([2H])(F)Oc1ccc(-c2ccc3nc(-c4nccnc4N)n(-c4ccc(CN5CCC(Nc6ccnc(C#N)n6)CC5)cc4)c3n2)cn1 [Example 640, 4-((1-(4-(2-(3-Aminopyrazin-2-yl)-5-(6-(fluoromethoxy-d2)pyridin-3-yl)-3H-imidazo[4,5-b]pyridin-3-yl)benzyl)piperidin-4-yl)amino)pyrimidine-2-carbonitrile]
600 to 10000 nM | Cn1c(-c2ccc3nc(-c4cccnc4N)n(-c4ccc(CN5CCC(Nc6ccnc(C#N)n6)CC5)cc4)c3n2)cccc1=O [Example 393, 4-((1-(4-(2-(2-Aminopyridin-3-yl)-5-(1-methyl-6-oxo-1,6-dihydropyridin-2-yl)-3H-imidazo[4,5-b]pyridin-3-yl)benzyl)piperidin-4-yl)amino)pyrimidine-2-carbonitrile]
< 15 nM | N#Cc1nccc(NC2CCN(Cc3ccc(-n4c(-c5cccnc5N)nc5ccc(-c6cnn(C7CC7)n6)nc54)cc3)CC2)n1 [Example 615, 4-((1-(4-(2-(2-Aminopyridin-3-yl)-5-(2-cyclopropyl-2H-1,2,3-triazol-4-yl)-3H-imidazo[4,5-b]pyridin-3-yl)benzyl)piperidin-4-yl)amino)pyrimidine-2-carbonitrile]
< 15 nM | N#Cc1nccc(NC2CCN(Cc3ccc(-n4c(-c5cccnc5N)nc5ccc(-c6cscn6)nc54)cc3)CC2)n1 [Example 482, 4-((1-(4-(2-(2-Aminopyridin-3-yl)-5-(thiazol-4-yl)-3H-imidazo[4,5-b]pyridin-3-yl)benzyl)piperidin-4-yl)amino)pyrimidine-2-carbonitrile]
< 15 nM | CN(C)c1cccc(-c2ccc3nc(-c4cccnc4N)n(-c4ccc(CN5CCC(Nc6ccnc(C#N)n6)CC5)cc4)c3n2)c1 [Example 521, 4-((1-(4-(2-(2-Aminopyridin-3-yl)-5-(3-(dimethylamino)phenyl)-3H-imidazo[4,5-b]pyridin-3-yl)benzyl)piperidin-4-yl)amino)pyrimidine-2-carbonitrile]

Same assay, conditions: competitive tracer displacement in living cells, read-out: AKT1 E17K IC50

SMILES | IC50
N#Cc1cnnc(NC2CCN(Cc3ccc(-n4c(-c5cccnc5N)nc5ccc(-c6ccccc6)nc54)cc3)CC2)c1 [Example 54, 6-((1-(4-(2-(2-Aminopyridin-3-yl)-5-phenyl-3H-imidazo[4,5-b]pyridin-3-yl)benzyl)piperidin-4-yl)amino)pyridazine-4-carbonitrile] | 60 to 600 nM
C[C@@H]1CN(Cc2ccc(-n3c(-c4cccnc4N)nc4ccc(-c5ccccc5)nc43)cc2)CCN1c1cc(C#N)ncn1 [Example 227, (R)-6-(4-(4-(2-(2-Aminopyridin-3-yl)-5-phenyl-3H-imidazo[4,5-b]pyridin-3-yl)benzyl)-2-methylpiperazin-1-yl)pyrimidine-4-carbonitrile] | 60 to 600 nM
N#Cc1ncccc1C(=O)NC1CCN(Cc2ccc(-n3c(-c4cccnc4N)nc4ccc(-c5ccccc5)nc43)cc2)CC1 [Example 58, N-(1-(4-(2-(2-Aminopyridin-3-yl)-5-phenyl-3H-imidazo[4,5-h]pyridin-3-yl)benzyl)piperidin-4-yl)-2-cyanonicotinamide] | < 15 nM
N#Cc1cncc(N2CCN(Cc3ccc(-n4c(-c5cccnc5N)nc5ccc(-c6ccccc6)nc54)cc3)CC2)n1 [Example 67, 6-(4-(4-(2-(2-Aminopyridin-3-yl)-5-phenyl-3H-imidazo[4,5-b]pyridin-3-yl)benzyl)piperazin-1-yl)pyrazine-2-carbonitrile] | 60 to 600 nM
N#Cc1cncc(N2CCN(Cc3ccc(-n4c(-c5cccnc5N)nc5ccc(-c6ccccc6)nc54)cc3)CC2)c1 [Example 65, 5-(4-(4-(2-(2-Aminopyridin-3-yl)-5-phenyl-3H-imidazo[4,5-b]pyridin-3-yl)benzyl)piperazin-1-yl)nicotinonitrile] | 60 to 600 nM
N#Cc1ccc(-c2ccc3nc(-c4cccnc4N)n(-c4ccc(CN5CCN(c6ccnc(C#N)n6)CC5)cc4)c3n2)cc1 [Example 294, 4-(4-(4-(2-(2-Aminopyridin-3-yl)-5-(4-cyanophenyl)-3H-imidazo[4,5-b]pyridin-3-yl)benzyl)piperazin-1-yl)pyrimidine-2-carbonitrile] | 15 to 60 nM
N#Cc1nccc(N2CCN(Cc3ccc(-n4c(-c5cccnc5N)nc5ccc(-c6cccc(F)c6)nc54)cc3)CC2)n1 [Example 295, 4-(4-(4-(2-(2-Aminopyridin-3-yl)-5-(3-fluorophenyl)-3H-imidazo[4,5-b]pyridin-3-yl)benzyl)piperazin-1-yl)pyrimidine-2-carbonitrile] | < 15 nM
N#Cc1nc2cc(F)cc(C(=O)NC3CCN(Cc4ccc(-n5c(-c6cccnc6N)nc6cccnc65)cc4)CC3)c2s1 [Example 35, N-(1-(4-(2-(2-Aminopyridin-3-yl)-3H-imidazo[4,5-b]pyridin-3-yl)benzyl)piperidin-4-yl)-2-cyano-5-fluorobenzo[d]thiazole-7-carboxamide] | 60 to 600 nM
N#Cc1nccc(N2CCN(Cc3ccc(-n4c(-c5cccnc5N)nc5ccc(-c6ccccc6F)nc54)cc3)CC2)n1 [Example 281, 4-(4-(4-(2-(2-Aminopyridin-3-yl)-5-(2-fluorophenyl)-3H-imidazo[4,5-b]pyridin-3-yl)benzyl)piperazin-1-yl)pyrimidine-2-carbonitrile] | < 15 nM
N#Cc1ccc(NC2CCN(Cc3ccc(-n4c(-c5cccnc5N)nc5ccc(-c6ccccc6)nc54)cc3)CC2)cn1 [Example 84, 5-((1-(4-(2-(2-Aminopyridin-3-yl)-5-phenyl-3H-imidazo[4,5-b]pyridin-3-yl)benzyl)piperidin-4-yl)amino)picolinonitrile] | 15 to 60 nM

Continued, values first:

IC50 | SMILES
< 15 nM | N#Cc1nccc(NC2CCN(Cc3ccc(-n4c(-c5cccnc5N)nc5ccc(-c6ccccc6F)nc54)cc3)CC2)n1 [Example 316, 4-((1-(4-(2-(2-Aminopyridin-3-yl)-5-(2-fluorophenyl)-3H-imidazo[4,5-b]pyridin-3-yl)benzyl)piperidin-4-yl)amino)pyrimidine-2-carbonitrile]
15 to 60 nM | N#Cc1nccc(NC2CCN(Cc3ccc(-n4c(-c5cccnc5N)nc5cccnc54)cc3)CC2)n1 [Example 92, 4-((1-(4-(2-(2-Aminopyridin-3-yl)-3H-imidazo[4,5-b]pyridin-3-yl)benzyl)piperidin-4-yl)amino)pyrimidine-2-carbonitrile]
